From the kinase profiling compilation of Christmann-Franck et al. (2016)

Assays:
Assay in all cases: radiometric filter-binding kinase assay
[1] = biological target: EEF2K (human) (UniProt O00418)
[2] = biological target: CSNK2A1 (human) (UniProt P68400)
[3] = biological target: IKBKB (human) (UniProt O14920)
[4] = tested on: PRKAA1 or PRKAA2 (rat); conditions: accession and sequence are those of the human protein
[5] = biological target: CDK2 CCNA2 (human) (UniProt P20248+P24941)
[6] = biological target: MAPKAPK3 (human) (UniProt Q16644)
[7] = biological target: SRC (human) (UniProt P12931)
[8] = biological target: PHKG1 (human) (UniProt Q16816)
[9] = tested on: ROCK2 (rat); conditions: accession and sequence are those of the human protein
[10] = biological target: DAPK1 (human) (UniProt P53355)
[11] = biological target: CHEK2 (human) (UniProt O96017)
[12] = biological target: INSRR (human) (UniProt P14616)
[13] = biological target: TTK (human) (UniProt P33981)
[14] = biological target: EPHB3 (human) (UniProt P54753)
[15] = biological target: MKNK2 (human) (UniProt Q9HBH9)
[16] = biological target: MELK (human) (UniProt Q14680)
[17] = biological target: MAPK1 (human) (UniProt P28482)
[18] = biological target: MYLK (human) (UniProt Q15746); conditions: compound 10.0 µM
[19] = biological target: RPS6KA1 KD1 KD2 (human) (UniProt Q15418)
[20] = biological target: AURKB (human) (UniProt Q96GD4)
[21] = biological target: MKNK1 (human) (UniProt Q9BUB5)
[22] = biological target: MINK1 (human) (UniProt Q8N4C8)
[23] = biological target: MARK4 (human) (UniProt Q96L34)
[24] = biological target: MAP2K2 (human) (UniProt P36507)
[25] = biological target: MAPK13 (human) (UniProt O15264)
[26] = biological target: NTRK1 (human) (UniProt P04629)
[27] = biological target: CSK (human) (UniProt P41240)
[28] = tested on: LCK (mouse); conditions: accession and sequence are those of the human protein
[29] = biological target: PRKCZ (human) (UniProt Q05513)
[30] = biological target: MAP3K9 (human) (UniProt P80192)
[31] = biological target: PRKACA (human) (UniProt P17612)
[32] = biological target: ERBB4 (human) (UniProt Q15303)
[33] = biological target: GSK3B (human) (UniProt P49841)
[34] = biological target: STK11 CAB39 STRADA (human) (UniProt Q9Y376+Q7RTN6+Q15831)
[35] = biological target: FGFR1 (human) (UniProt P11362); conditions: compound 10.0 µM

Sequence of NTRK1 (human) (P04629 whole entry, looked up): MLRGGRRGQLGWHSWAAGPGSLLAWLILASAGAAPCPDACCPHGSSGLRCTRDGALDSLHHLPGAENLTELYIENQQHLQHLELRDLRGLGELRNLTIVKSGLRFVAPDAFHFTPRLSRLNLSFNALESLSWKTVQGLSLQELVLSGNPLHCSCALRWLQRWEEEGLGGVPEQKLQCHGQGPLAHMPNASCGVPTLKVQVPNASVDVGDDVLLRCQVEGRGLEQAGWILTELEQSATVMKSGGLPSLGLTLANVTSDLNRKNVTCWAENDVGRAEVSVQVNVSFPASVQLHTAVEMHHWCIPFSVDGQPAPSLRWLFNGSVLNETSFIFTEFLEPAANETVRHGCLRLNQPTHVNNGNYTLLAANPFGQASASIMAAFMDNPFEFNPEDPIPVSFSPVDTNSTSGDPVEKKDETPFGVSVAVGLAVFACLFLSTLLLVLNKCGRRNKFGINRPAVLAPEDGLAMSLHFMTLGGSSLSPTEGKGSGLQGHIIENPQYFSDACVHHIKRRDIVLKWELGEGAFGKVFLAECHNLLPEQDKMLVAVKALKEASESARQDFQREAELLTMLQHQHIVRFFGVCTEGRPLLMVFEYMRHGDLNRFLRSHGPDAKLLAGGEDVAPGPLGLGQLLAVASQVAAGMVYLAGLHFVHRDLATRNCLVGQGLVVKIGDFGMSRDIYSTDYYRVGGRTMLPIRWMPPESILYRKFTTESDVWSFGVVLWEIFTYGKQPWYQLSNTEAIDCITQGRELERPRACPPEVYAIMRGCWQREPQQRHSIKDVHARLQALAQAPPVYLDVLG
Sequence of MAP2K2 (human) (P36507 whole entry, looked up): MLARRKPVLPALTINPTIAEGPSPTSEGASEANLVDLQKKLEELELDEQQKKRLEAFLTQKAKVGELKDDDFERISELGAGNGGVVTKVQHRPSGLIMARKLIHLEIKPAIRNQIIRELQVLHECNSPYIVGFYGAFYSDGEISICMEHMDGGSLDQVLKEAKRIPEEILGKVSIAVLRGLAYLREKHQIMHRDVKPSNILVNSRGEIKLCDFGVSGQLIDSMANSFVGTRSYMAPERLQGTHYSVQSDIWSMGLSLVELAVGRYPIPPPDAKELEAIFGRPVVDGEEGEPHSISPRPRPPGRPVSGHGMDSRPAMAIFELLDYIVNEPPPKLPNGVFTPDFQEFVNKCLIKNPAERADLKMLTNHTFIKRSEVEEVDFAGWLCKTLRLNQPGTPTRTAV
Sequence of MAPK1 (human) (P28482 whole entry, looked up): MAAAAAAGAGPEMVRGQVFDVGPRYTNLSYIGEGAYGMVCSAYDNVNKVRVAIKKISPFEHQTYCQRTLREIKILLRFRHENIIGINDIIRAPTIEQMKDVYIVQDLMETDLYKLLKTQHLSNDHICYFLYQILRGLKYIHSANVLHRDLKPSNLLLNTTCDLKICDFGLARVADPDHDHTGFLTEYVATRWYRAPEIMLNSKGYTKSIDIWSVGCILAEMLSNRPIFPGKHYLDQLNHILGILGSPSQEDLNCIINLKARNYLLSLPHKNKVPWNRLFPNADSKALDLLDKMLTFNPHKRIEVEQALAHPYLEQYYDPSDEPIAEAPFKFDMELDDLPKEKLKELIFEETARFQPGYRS
Sequence of MAPKAPK3 (human) (Q16644 whole entry, looked up): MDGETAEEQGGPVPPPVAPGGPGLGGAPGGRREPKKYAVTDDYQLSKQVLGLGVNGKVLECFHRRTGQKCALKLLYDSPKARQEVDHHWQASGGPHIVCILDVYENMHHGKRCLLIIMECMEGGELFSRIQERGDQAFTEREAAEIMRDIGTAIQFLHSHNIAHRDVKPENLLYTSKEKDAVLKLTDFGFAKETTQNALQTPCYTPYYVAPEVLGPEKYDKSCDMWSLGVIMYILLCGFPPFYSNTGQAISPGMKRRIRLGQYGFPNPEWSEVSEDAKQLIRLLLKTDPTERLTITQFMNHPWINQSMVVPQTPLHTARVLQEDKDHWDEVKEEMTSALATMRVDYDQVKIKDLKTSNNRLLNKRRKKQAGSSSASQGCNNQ
Sequence of MAPK13 (human) (O15264 whole entry, looked up): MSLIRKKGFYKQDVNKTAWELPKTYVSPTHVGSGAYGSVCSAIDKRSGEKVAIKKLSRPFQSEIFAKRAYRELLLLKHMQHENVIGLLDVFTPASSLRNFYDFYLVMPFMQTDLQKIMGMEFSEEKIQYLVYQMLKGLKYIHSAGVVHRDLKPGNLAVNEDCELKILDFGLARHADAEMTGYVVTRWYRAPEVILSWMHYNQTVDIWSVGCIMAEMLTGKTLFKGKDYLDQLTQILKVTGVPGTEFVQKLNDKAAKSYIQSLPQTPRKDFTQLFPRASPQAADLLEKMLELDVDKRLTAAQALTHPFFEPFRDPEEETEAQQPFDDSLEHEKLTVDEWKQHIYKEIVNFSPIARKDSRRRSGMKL
Sequence of DAPK1 (human) (P53355 whole entry, looked up): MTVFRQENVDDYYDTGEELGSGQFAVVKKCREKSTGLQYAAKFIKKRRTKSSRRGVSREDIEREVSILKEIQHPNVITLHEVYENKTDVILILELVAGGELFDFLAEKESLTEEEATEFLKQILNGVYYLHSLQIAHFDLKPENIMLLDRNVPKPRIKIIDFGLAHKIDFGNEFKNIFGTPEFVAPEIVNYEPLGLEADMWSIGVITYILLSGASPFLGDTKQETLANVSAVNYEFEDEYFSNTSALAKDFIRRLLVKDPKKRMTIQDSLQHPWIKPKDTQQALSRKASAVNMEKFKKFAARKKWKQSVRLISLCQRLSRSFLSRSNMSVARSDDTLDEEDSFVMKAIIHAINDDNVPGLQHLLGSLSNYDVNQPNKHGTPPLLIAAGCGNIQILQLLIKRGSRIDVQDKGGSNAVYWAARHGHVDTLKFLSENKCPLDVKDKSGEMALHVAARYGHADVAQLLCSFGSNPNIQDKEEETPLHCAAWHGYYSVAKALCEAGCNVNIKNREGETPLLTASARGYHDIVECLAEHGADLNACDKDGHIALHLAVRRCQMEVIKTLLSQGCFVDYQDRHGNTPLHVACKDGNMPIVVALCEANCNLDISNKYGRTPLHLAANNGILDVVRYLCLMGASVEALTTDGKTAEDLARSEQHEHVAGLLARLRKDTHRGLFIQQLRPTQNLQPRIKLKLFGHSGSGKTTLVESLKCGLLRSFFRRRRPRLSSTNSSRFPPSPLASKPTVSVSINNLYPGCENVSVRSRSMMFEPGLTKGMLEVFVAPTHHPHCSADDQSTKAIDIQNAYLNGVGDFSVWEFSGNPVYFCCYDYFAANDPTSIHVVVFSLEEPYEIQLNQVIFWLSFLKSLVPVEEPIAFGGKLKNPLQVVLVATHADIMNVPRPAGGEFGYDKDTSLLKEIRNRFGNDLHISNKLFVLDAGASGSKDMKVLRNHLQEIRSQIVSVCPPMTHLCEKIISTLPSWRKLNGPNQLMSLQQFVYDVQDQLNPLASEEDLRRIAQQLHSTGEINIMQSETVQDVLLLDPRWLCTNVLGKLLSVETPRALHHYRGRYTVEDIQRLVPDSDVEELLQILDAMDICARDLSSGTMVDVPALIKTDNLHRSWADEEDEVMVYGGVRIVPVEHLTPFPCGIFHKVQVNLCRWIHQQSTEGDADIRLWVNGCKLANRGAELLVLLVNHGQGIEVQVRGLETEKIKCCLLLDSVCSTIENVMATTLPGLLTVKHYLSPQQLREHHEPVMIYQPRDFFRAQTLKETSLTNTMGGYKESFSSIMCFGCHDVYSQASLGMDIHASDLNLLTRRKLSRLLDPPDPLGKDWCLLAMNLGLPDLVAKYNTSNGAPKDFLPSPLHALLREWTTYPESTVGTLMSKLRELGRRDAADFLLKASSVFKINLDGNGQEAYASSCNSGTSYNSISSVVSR
Sequence of PRKCZ (human) (Q05513 whole entry, looked up): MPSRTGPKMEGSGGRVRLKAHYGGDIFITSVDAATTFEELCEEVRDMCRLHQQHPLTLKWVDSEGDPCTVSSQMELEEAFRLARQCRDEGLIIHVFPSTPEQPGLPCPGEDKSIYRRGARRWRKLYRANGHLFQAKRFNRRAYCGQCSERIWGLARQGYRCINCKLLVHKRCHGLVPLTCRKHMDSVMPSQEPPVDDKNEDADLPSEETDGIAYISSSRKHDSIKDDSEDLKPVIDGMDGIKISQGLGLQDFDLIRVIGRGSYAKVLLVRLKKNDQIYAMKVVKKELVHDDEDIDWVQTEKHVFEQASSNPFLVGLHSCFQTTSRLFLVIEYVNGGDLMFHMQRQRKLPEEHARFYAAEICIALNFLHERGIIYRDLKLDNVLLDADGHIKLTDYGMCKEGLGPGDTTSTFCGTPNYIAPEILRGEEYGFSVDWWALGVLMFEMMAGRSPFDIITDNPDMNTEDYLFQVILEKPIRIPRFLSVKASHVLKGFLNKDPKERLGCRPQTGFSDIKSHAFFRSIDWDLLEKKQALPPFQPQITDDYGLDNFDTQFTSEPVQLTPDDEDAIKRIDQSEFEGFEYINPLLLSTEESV
Sequence of EEF2K (human) (O00418 whole entry, looked up): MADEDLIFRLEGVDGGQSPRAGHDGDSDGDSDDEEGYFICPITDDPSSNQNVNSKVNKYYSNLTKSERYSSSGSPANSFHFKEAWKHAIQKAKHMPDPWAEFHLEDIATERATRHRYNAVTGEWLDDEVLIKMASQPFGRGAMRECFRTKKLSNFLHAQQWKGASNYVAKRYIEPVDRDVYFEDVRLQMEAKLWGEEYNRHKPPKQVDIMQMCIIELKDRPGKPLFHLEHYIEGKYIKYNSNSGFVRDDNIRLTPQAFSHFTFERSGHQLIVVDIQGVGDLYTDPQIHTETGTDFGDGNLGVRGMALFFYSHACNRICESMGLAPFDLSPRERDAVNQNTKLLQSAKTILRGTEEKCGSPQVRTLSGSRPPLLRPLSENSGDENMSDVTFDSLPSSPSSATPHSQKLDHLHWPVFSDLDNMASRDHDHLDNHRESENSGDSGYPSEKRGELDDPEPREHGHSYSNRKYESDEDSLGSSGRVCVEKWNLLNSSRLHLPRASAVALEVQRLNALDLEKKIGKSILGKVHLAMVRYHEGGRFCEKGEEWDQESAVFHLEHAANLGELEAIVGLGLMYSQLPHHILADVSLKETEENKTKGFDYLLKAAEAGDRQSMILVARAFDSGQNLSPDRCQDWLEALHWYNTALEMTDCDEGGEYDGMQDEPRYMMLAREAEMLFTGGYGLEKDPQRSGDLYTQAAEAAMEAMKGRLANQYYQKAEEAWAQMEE

O=C(NOCC(O)CO)c1ccc(F)c(F)c1Nc1ccc(I)cc1Cl (stereo not drawn)
residual activity ([1]; compound 1.0 µM): 84%
residual activity ([1]; compound 10.0 µM): 92%
residual activity ([2]; compound 1.0 µM): 111%
residual activity ([2]; compound 10.0 µM): 98%
residual activity ([3]; compound 1.0 µM): 78%
residual activity ([3]; compound 10.0 µM): 89%
residual activity ([4]; compound 1.0 µM): 111%
residual activity ([4]; compound 10.0 µM): 120%
residual activity ([5]; compound 1.0 µM): 95%
residual activity ([5]; compound 10.0 µM): 97%
residual activity ([6]; compound 1.0 µM): 94%
residual activity ([6]; compound 10.0 µM): 77%
residual activity ([7]; compound 1.0 µM): 124%
residual activity ([7]; compound 10.0 µM): 72%
residual activity ([8]; compound 1.0 µM): 94%
residual activity ([8]; compound 10.0 µM): 90%
residual activity ([9]; compound 1.0 µM): 102%
residual activity ([9]; compound 10.0 µM): 103%
residual activity ([10]; compound 1.0 µM): 97%
residual activity ([10]; compound 10.0 µM): 98%
residual activity ([11]; compound 1.0 µM): 104%
residual activity ([11]; compound 10.0 µM): 93%
residual activity ([12]; compound 1.0 µM): 84%
residual activity ([13]; compound 1.0 µM): 105%
residual activity ([13]; compound 10.0 µM): 98%
residual activity ([14]; compound 1.0 µM): 113%
residual activity ([14]; compound 10.0 µM): 82%
residual activity ([15]; compound 1.0 µM): 89%
residual activity ([15]; compound 10.0 µM): 90%
residual activity ([16]; compound 1.0 µM): 109%
residual activity ([16]; compound 10.0 µM): 106%
residual activity ([17]; compound 1.0 µM): 83%
residual activity ([17]; compound 10.0 µM): 79%
residual activity [18]: 86%
residual activity ([19]; compound 1.0 µM): 122%
residual activity ([19]; compound 10.0 µM): 98%
residual activity ([20]; compound 1.0 µM): 99%
residual activity ([20]; compound 10.0 µM): 78%
residual activity ([21]; compound 1.0 µM): 106%
residual activity ([21]; compound 10.0 µM): 95%
residual activity ([22]; compound 1.0 µM): 119%
residual activity ([22]; compound 10.0 µM): 127%
residual activity ([23]; compound 1.0 µM): 119%
residual activity ([23]; compound 10.0 µM): 108%
residual activity ([24]; compound 1.0 µM): 55%
residual activity ([24]; compound 10.0 µM): 23%
residual activity ([25]; compound 1.0 µM): 84%
residual activity ([25]; compound 10.0 µM): 97%
residual activity ([26]; compound 1.0 µM): 79%
residual activity ([26]; compound 10.0 µM): 78%
residual activity ([27]; compound 1.0 µM): 89%
residual activity ([27]; compound 10.0 µM): 88%
residual activity ([28]; compound 1.0 µM): 93%
residual activity ([28]; compound 10.0 µM): 104%
residual activity ([29]; compound 1.0 µM): 89%
residual activity ([29]; compound 10.0 µM): 91%
residual activity ([30]; compound 1.0 µM): 84%
residual activity ([30]; compound 10.0 µM): 85%
residual activity ([31]; compound 1.0 µM): 94%
residual activity ([31]; compound 10.0 µM): 103%
residual activity ([32]; compound 1.0 µM): 86%
residual activity ([32]; compound 10.0 µM): 82%
residual activity ([33]; compound 1.0 µM): 89%
residual activity ([33]; compound 10.0 µM): 89%
residual activity ([34]; compound 1.0 µM): 80%
residual activity ([34]; compound 10.0 µM): 77%

CCOC(=O)c1ccc(N2NC(=O)/C(=C/c3ccc([N+](=O)[O-])o3)C2=O)cc1
residual activity [35]: 69%
residual activity ([1]; compound 10.0 µM): 97%
residual activity ([2]; compound 10.0 µM): 106%
residual activity ([3]; compound 10.0 µM): 108%
residual activity ([4]; compound 10.0 µM): 108%
residual activity ([5]; compound 10.0 µM): 110%
residual activity ([6]; compound 10.0 µM): 41%
residual activity ([9]; compound 10.0 µM): 91%
residual activity ([10]; compound 10.0 µM): 112%
residual activity ([11]; compound 10.0 µM): 92%
residual activity ([12]; compound 10.0 µM): 106%
residual activity ([13]; compound 10.0 µM): 90%
residual activity ([14]; compound 10.0 µM): 100%
residual activity ([15]; compound 10.0 µM): 89%
residual activity ([16]; compound 10.0 µM): 82%
residual activity ([17]; compound 10.0 µM): 82%
residual activity [18]: 109%
residual activity ([19]; compound 10.0 µM): 92%
residual activity ([20]; compound 10.0 µM): 102%
residual activity ([21]; compound 10.0 µM): 110%
residual activity ([22]; compound 10.0 µM): 73%
residual activity ([23]; compound 10.0 µM): 52%
residual activity ([24]; compound 10.0 µM): 9%
residual activity ([25]; compound 10.0 µM): 106%
residual activity ([26]; compound 10.0 µM): 104%
residual activity ([28]; compound 10.0 µM): 121%
residual activity ([29]; compound 10.0 µM): 112%
residual activity ([30]; compound 10.0 µM): 78%
residual activity ([31]; compound 10.0 µM): 95%
residual activity ([32]; compound 10.0 µM): 91%
residual activity ([33]; compound 10.0 µM): 106%
residual activity ([34]; compound 10.0 µM): 134%
